Experimental data as given in patent US6329189A, “Enzyme producing tartaric acid ether compound and process for producing tartaric acid ether compounds using this enzyme” (Kikkoman Corporation, priority 1998, dated 2001).
Where a name gives a salt, the structure may show the parent alone.

Tests used:
[1] = target: T1, histidine decarboxylase (HDC) (Homo sapiens, UniProt P19113); conditions: from JP-A-9-110857 and JP-A-10-59956; cited from earlier work
T1 sequence (P19113 1-662): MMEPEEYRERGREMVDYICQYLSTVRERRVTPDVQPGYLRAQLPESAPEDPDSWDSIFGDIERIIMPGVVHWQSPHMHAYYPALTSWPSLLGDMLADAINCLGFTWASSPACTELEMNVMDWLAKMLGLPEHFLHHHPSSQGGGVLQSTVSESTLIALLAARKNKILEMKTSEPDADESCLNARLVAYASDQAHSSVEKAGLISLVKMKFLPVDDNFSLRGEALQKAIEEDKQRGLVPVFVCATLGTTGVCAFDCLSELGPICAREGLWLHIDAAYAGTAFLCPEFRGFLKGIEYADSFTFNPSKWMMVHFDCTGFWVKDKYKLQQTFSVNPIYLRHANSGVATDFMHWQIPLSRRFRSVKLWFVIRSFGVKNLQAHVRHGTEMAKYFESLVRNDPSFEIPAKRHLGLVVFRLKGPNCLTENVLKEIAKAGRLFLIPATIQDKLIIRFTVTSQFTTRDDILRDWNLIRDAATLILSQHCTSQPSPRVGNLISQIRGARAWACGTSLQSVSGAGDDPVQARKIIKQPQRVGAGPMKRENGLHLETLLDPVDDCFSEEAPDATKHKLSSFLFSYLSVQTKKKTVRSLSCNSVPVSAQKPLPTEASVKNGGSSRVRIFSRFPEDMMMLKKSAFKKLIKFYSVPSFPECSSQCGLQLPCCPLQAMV

[2] = Solubility in solvents of the enzyme reaction products; type: physicochemical; conditions: water, methanol, DMSO
[3] = tested on: enzyme producing tartaric acid ether compound; test: Substrate specificity of the present enzyme in the presence of (±)-trans-epoxysuccinic acid; type: biochemical, Aspergillus oryzae; conditions: for Action of the enzyme to the phenolic hydroxyl groups of the substrate (in words): in the presence of (±)-trans-epoxysuccinic acid; for Relative activity (%): substrate in the presence of (±)-trans-epoxysuccinic acid, decrement of genistein as substrate expressed as 100
Description: The activities of the present enzyme to the various substrate compounds having a phenolic hydroxyl group(s) shown in Table 1 in the presence of (±)-trans-epoxysuccinic acid were measured and shown as relative activities (%) with reference to the activity to genistein which was expressed as 100. The measurement of activity was conducted under the same conditions as used for the determination of titer described later.
Enzyme titer was determined by the following method. The amount of the enzyme that produces 1 μmol of 2-hydroxy-3-[[5-hydroxy-3-(4-hydroxyphenyl)-4-oxo-4H-1-benzopyran-7-yl]oxy]-butanedioic acid in one minute in the reaction of the following formula (6) is expressed as 1 U. [drawing 1]
Substrate solution I: 60 mM (±)-trans-epoxysuccinic acid (Tokyo Kasei Kogyo Co., Ltd.) was dissolved in 100 ml of a 50 mM sodium acetate-acetic acid buffer (pH 6.0), and the solution was adjusted to pH 6.0 with sodium hydroxide.
Substrate solution II: Prepared by dissolving 0.3 mmol of genistein (Funakoshi Co., Ltd.) in 100 ml of dimethyl sulfoxide.
50 mmol of sodium acetate and 40 mmol of manganese sulfate were dissolved in distilled water, and the solution was adjusted to pH 6.0 with acetic acid and made one litre.
(1) 0.175 ml of the buffer, 0.1 ml of the substrate solution I and 0.01 ml of an enzyme solution were pipetted into a microtube, and the mixed solution was preincubated at 37° C. for 5 minutes.
(2) The above solution was mixed with 0.025 ml of the substrate solution II and reacted at 37° C. for 15 minutes, after which 0.01 ml of concentrated hydrochloric acid was added to stop the reaction. Used as control was a solution prepared in the same way as described above except that 0.01 ml of the buffer was added in place of 0.01 ml of the enzyme solution.
2-hydroxy-3-[[5-hydroxy-3-(4-hydroxyphenyl)-4-oxo-4H-1-benzopyran-7-yl]oxy]-butanedioic acid produced from the reaction of the formula (6) was determined by HPLC under the following conditions: […]
Column: Wakosil-II5C18HG (4.6 mm×30 mm+4.6 mm×250 mm, mfd. by Wako Pure Chemical Industries, Ltd.).
Eluent: distilled water containing 0.05% of trifluoroacetic acid and 28.8% of acetonitrile.
Detecting wavelengh: 260 nm.

[4] = tested on: enzyme producing tartaric acid ether compound; test: Influence of metallic ions on the action of the present enzyme; type: biochemical, Aspergillus oryzae; conditions: for Relative activity (%): activity with no addition = 100%; for Influence on the activity of the present enzyme (in words): presence of the ion or EDTA
Description: "Relative activity (%)" in Table 2 is the value relative to the activity (expressed as 100) observed when no metallic ion was added.
The activity observed with no addition of metallic ions was expressed as 100%.

| SMILES | Action of the enzyme to the phenolic hydroxyl groups of the substrate (in words) [3] | Relative activity (%) [3] [%] | other results |
| --- | --- | --- | --- |
| O=C(O)C(O)C(Oc1cc(O)c2c(=O)c(-c3ccc(O)cc3)coc2c1O)C(=O)O (single isomer, unassigned) [2-[[5,8-dihydroxy-3-(4-hydroxyphenyl)-4-oxo-4H-1-benzopyran-7-yl]oxy]-3-hydroxy-butanedioic acid] |  |  | Inhibitory action against histidine decarboxylase (HDC) [1]: prominent inhibitory action |
| O=C(O)C(O)C(Oc1ccc2c(=O)c(-c3ccc(O)cc3)coc2c1)C(=O)O (single isomer, unassigned) [2-hydroxy-3-[[3-(4-hydroxyphenyl)-4-oxo-4H-1-benzopyran-7-yl]oxy]-butanedioic acid] |  |  | Inhibitory action against histidine decarboxylase (HDC) [1]: prominent inhibitory action |
| O=C(O)C(O)C(Oc1cc(O)c2c(c1)O[C@H](c1ccc(O)c(O)c1)[C@@H](O)C2=O)C(=O)O (single isomer, unassigned) [Example 5 enzyme reaction product] |  |  | Solubility in solvents [2]: soluble in water, methanol and DMSO |
| O=C(/C=C/c1ccc(O)c(O)c1)c1c(O)cc(O)cc1O [2',4',6',3,4-pentahydroxychalcone] | acts in a favorable way | 115 |  |
| O=c1c(-c2ccc(O)cc2)coc2cc(O)c(O)cc12 [4',6,7-trihydroxyisoflavone] | acts in a favorable way | 182 |  |
| Cc1cc(=O)oc2cc(O)cc(O)c12 [5,7-dihydroxy-4-methylcoumarin] | acts in a favorable way | 107 |  |
| O=C1COc2cc(O)ccc21 [6-hydroxy-2H-benzofuran-3-one] | acts in a favorable way | 135 |  |
| O=C1c2c(O)cc(O)cc2O[C@H](c2ccc(O)c(O)c2)[C@H]1O [(+)-taxifolin] | acts in a favorable way | 106 |  |
| [Ca+2] [Ca^2+] |  |  | Relative activity (%) ([4]; 20 mM metallic ion): 140%; Influence on the activity of the present enzyme (in words) [4]: enhanced |
| [Co+2] [Co^2+] |  |  | Relative activity (%) ([4]; 20 mM metallic ion): 236%; Influence on the activity of the present enzyme (in words) [4]: enhanced |
| [Cu+2] [Cu^2+] |  |  | Relative activity (%) ([4]; 20 mM metallic ion): 0%; Influence on the activity of the present enzyme (in words) [4]: greatly inhibited |
| O=C(O)CN(CCN(CC(=O)O)CC(=O)O)CC(=O)O [EDTA, ethylenediamine-N,N,N'N'-tetraacetic acid disodium salt] |  |  | Relative activity (%) ([4]; 5 mM EDTA): 12%; Influence on the activity of the present enzyme (in words) [4]: greatly inhibited |
| O=C1C(=Cc2ccc(O)c(O)c2)Oc2cc(OC(C(=O)O)C(O)C(=O)O)ccc21 (stereo not drawn) [Example 2 enzyme reaction product] |  |  | Solubility in solvents [2]: soluble in water, methanol and DMSO |
| O=C(O)C(O)C(Oc1ccc(-c2oc3cc(OC(C(=O)O)C(O)C(=O)O)cc(O)c3c(=O)c2O)cc1)C(=O)O (stereo not drawn) [Example 3 enzyme reaction product II] |  |  | Solubility in solvents [2]: soluble in water, methanol and DMSO |
| O=C(O)C(O)C(Oc1cc(O)c2c(=O)c(O)c(-c3ccc(O)cc3)oc2c1)C(=O)O (stereo not drawn) [Example 3 enzyme reaction product I] |  |  | Solubility in solvents [2]: soluble in water, methanol and DMSO |
| O=C1CC(c2ccc(OC(C(=O)O)C(O)C(=O)O)cc2)Oc2cc(OC(C(=O)O)C(O)C(=O)O)cc(O)c21 (stereo not drawn) [Example 4 enzyme reaction product II] |  |  | Solubility in solvents [2]: soluble in water, methanol and DMSO |
| O=C1CC(c2ccc(O)cc2)Oc2cc(OC(C(=O)O)C(O)C(=O)O)cc(O)c21 (stereo not drawn) [Example 4 enzyme reaction product I] |  |  | Solubility in solvents [2]: soluble in water, methanol and DMSO |
| O=C(O)C(O)C(Oc1cc(O)c2c(=O)cc(-c3ccc(O)cc3)oc2c1)C(=O)O (stereo not drawn) [Example 6 enzyme reaction product] |  |  | Solubility in solvents [2]: soluble in water, methanol and DMSO |

| SMILES | Action of the enzyme to the phenolic hydroxyl groups of the substrate (in words) [3] | Relative activity (%) [3] [%] | other results |
| --- | --- | --- | --- |
| [Fe+2] [Fe^2+] |  |  | Relative activity (%) ([4]; 20 mM metallic ion): 125%; Relative activity (%) ([4]; 20 mM metallic ion, listed as Fe^3+): 33%; Influence on the activity of the present enzyme (in words) [4]: enhanced |
| [Mg+2] [Mg^2+] |  |  | Relative activity (%) ([4]; 20 mM metallic ion): 220%; Influence on the activity of the present enzyme (in words) [4]: enhanced |
| [Mn+2] [Mn^2+] |  |  | Relative activity (%) ([4]; 20 mM metallic ion): 268%; Influence on the activity of the present enzyme (in words) [4]: enhanced |
| [Ni+2] [Ni^2+] |  |  | Relative activity (%) ([4]; 20 mM metallic ion): 198%; Influence on the activity of the present enzyme (in words) [4]: enhanced |
| [Zn+2] [Zn^2+] |  |  | Relative activity (%) ([4]; 20 mM metallic ion): 416%; Influence on the activity of the present enzyme (in words) [4]: enhanced |
| O=c1cc(-c2ccc(O)cc2)oc2cc(O)cc(O)c12 [apigenin] | acts in a favorable way | 92 |  |
| O=c1cc(-c2ccccc2)oc2cc(O)c(O)c(O)c12 [baicalein] | acts in a favorable way | 321 |  |
| COc1ccc(-c2coc3cc(O)cc(O)c3c2=O)cc1 [biochanin A] | acts in a favorable way | 86 |  |
| Oc1cc(O)c2c(c1)OC(c1ccc(O)c(O)c1)C(O)C2 (stereo not drawn) [catechin] |  | 16 |  |
| O=c1oc2cc(O)ccc2c2oc3cc(O)ccc3c12 [courmestrol] | acts in a favorable way | 58 |  |
| O=c1c(-c2ccc(O)cc2)coc2cc(O)ccc12 [daidzein] | acts in a favorable way | 52 |  |
| O=c1c(O)c(-c2ccc(O)cc2)oc2cc(O)cc(O)c12 [kaempferol] | acts in a favorable way | 278 |  |
| O=c1cc(CO)occ1O [kojic acid] | acts faintly | 4 |  |
| O=C1C[C@@H](c2ccc(O)cc2)Oc2cc(O)cc(O)c21 [naringenin] | acts in a favorable way | 194 |  |
| O=c1c(O)c(-c2ccc(O)c(O)c2)oc2cc(O)cc(O)c12 [quercetin] |  | 31 |  |
| O=C1/C(=C/c2ccc(O)c(O)c2)Oc2cc(O)ccc21 [sulfuretin] | acts in a favorable way | 316 |  |
| COc1cc(C(=O)O)ccc1O [vanillic acid] | acts faintly | 4 |  |
